Consider one compound from patent US20130041005A1, “PHARMACEUTICAL COMPOSITIONS COMPRISING NEUROPILIN INHIBITORS, AND THEIR USE FOR THE PREVENTION AND/OR TREATMENT OF ANGIOGENIC DISORDERS AND CANCERS” (TRAGEX PHARMA, priority 2011, published 2013).

This assay has as its system MDA-MB-231 cells. Kind of assay: In vivo MDA-MB-231 tumor study in NOD-SCID mice. The conditions noted are these: for tumor size: oral gavage (FIG. 8B); for percentage of survival at day 35: oral gavage (FIG. 8C). Here is the method: Female (NOD-SCID) mice 5-6 weeks old were injected subcutaneously with MDA-MB-231 cells (5.10^6) at a single site on their right flanks. Tumors were allowed to grow (19 days) to less than […] before being pair-matched by tumor size into treatment groups (8 mice/group). One group was treated with vehicles (8 mice/group receiving cremofor 12.5%/ethanol 12.5%/H2O), one group was treated with 10 mg/kg of the compound 1 of the invention (8 mice/group receiving compound 1+cremofor 12.5%/ethanol 12.5%/H2O), one group was treated with 50 mg/kg of the compound 1 of the invention ([…] receiving compound 1+cremofor 12.5%/ethanol 12.5%/H2O). All groups received daily by oral gavages for 5 consecutive days/weeks approximately 100 μL of a solution containing the compound 1 of the invention. Mice were weighed regularly to assess toxicity of the treatments and the tumors were measured with calipers (width×width×length×Pi/6) to determine tumor growth. Mice survival was assessed during the study and metastatic development was investigated in lung, spleen and liver.

With `Cc1ccc(-c2nc3ccccc3[nH]2)cc1NC(=S)NC(=O)c1ccc2c(c1)OCCO2` [Compound 1, N-[5-(1H-benzimidazol-2-yl)-2-methylphenyl]-N′-(2,3-dihydro-1,4-benzodioxin-6-ylcarbonyl)thiourea], where the note is “10 mg/kg”, the tumor size entry is “tumor size was smaller” and the “percentage of survival at day 35” value is on record as “about 70%”. Also, for the setting “50 mg/kg”, the tumor size entry is “tumor size was smaller” and the “percentage of survival at day 35” value is given as 100%.
